1 compound from patent US20110287069A1, “SOLID ORAL FORMULATIONS OF A PYRIDOPYRIMIDINONE” (priority 2009, published 2011) can be followed below.

Data set [1] in a line: solubility and dissolution rate in aqueous media. The format is physicochemical. The source says: Even at a lower pH of 1, the dissolution rate of (R)-2-amino-7-[4-fluoro-2-(6-methoxy-pyridin-2-yl)-phenyl]-4-methyl-7,8-dihydro-6H-pyrido[4,3-d]pyrimidin-5-one is too slow. The present inventors have discovered that, when (R)-2-amino-7-[4-fluoro-2-(6-methoxy-pyridin-2-yl)-phenyl]-4-methyl-7,8-dihydro-6H-pyrido[4,3-d]pyrimidin-5-one is in the presence of a surfactant or an acid, the problems of a low solubility and a slow dissolution rate are overcome, resulting in (R)-2-amino-7-[4-fluoro-2-(6-methoxy-pyridin-2-yl)-phenyl]-4-methyl-7,8-dihydro-6H-pyrido[4,3-d]pyrimidin-5-one being soluble in aqueous solution and a dissolution rate that is unexpectedly faster and higher.

Data set [2] is described as follows: particle size by laser light diffraction. It is filed as physicochemical. The settings on record: micronized, screened through #25 screen. From the text: (R)-2-Amino-7-[4-fluoro-2-(6-methoxy-pyridin-2-yl)-phenyl]-4-methyl-7,8-dihydro-6H-pyrido[4,3-d]pyrimidin-5-one was micronized and screened through a #25 screen to a D average particle size of about 2 microns, with laser light diffraction yielding the following results: D(10) 0.78 μm, D(50) 2.18 μm, and D(90) 3.95 μm. The micronized (R)-2-amino-7-[4-fluoro-2-(6-methoxy-pyridin-2-yl)-phenyl]-4-methyl-7,8-dihydro-6H-pyrido[4,3-d]pyrimidin-5-one was then screened and added to a mixing bin along with the succinic acid and part A (50%) of the microcrystalline cellulose. The contents in the mixing bin were mixed for 150 revolutions, screened through a #40 screen and combine with a screened (#40 screen) mixture of AEROSIL 200, crospovidone, and the remaining other part B (50%) of the microcrystalline cellulose. This combination was mixed for 250 revolutions and screened through a #40 screen, and then combine with a first frozen and then milled mixture of vitamin E TPGS (screen no. 0063 using a Fitz mill) and magnesium stearate that was passed through at #30 mesh, to form a final combination, which was then blended together for 150 revolutions and encapsulated in a hard gelatin capsule using an encapsulation machine.

As for `COc1cccc(-c2cc(F)ccc2[C@H]2Cc3nc(N)nc(C)c3C(=O)N2)n1` [(R)-2-amino-7-[4-fluoro-2-(6-methoxy-pyridin-2-yl)-phenyl]-4-methyl-7,8-dihydro-6H-pyrido[4,3-d]pyrimidin-5-one], the solubility result in data set [1] (aqueous media with a pH above 3) is given as “very low solubility”. Also, in data set [1] (pH of 1), the dissolution rate entry is “too slow”. Moreover, in data set [2], the “D(10) particle size” value was 0.78 μm, the “D(50) particle size” value is given as 2.18 μm and the “D(90) particle size” value worked out at 3.95 μm.
